Measurements published in ChEMBL document CHEMBL3885861, “Open TG-GATES”.

Species: Rattus norvegicus
Test: Open TG-GATES - Regimen: Daily Repeat
Format: toxicity, organism-based, Sprague-Dawley
Set-up: regimen Daily Repeat, gender Male, age 6 weeks
Settings: in vivo, po, route gavage; for TG / TP / gamma-GTP / ALP / ALT / CRE / DBIL / GLC / IP / K / LDH / Na / PL / RALB / TBIL / TC / BUN: tissue Plasma
[1] = 60 mg/kg, […], dose level Low, time 28 day
[2] = 200 mg/kg, 72 h, dose level Middle, time 3 day
[3] = 200 mg/kg, 72 h, tissue Blood, dose level Middle, time 3 day
[4] = 200 mg/kg, […], dose level Middle, time 7 day
[5] = 200 mg/kg, […], dose level Middle, time 14 day
[6] = 200 mg/kg, […], dose level Middle, time 28 day
[7] = 200 mg/kg, […], tissue Blood, dose level Middle, time 7 day
[8] = 200 mg/kg, […], tissue Blood, dose level Middle, time 14 day
[9] = 200 mg/kg, […], tissue Blood, dose level Middle, time 28 day
[10] = 600 mg/kg, 72 h, dose level High, time 3 day
[11] = 600 mg/kg, 72 h, tissue Blood, dose level High, time 3 day
[12] = 600 mg/kg, […], dose level High, time 7 day
[13] = 600 mg/kg, […], dose level High, time 14 day
[14] = 600 mg/kg, […], dose level High, time 28 day
[15] = 600 mg/kg, […], tissue Blood, dose level High, time 7 day
[16] = 600 mg/kg, […], tissue Blood, dose level High, time 14 day
[17] = 600 mg/kg, […], tissue Blood, dose level High, time 28 day

CCN(CC)C(=S)SSC(=S)N(CC)CC gave a TG [1] of 67.8 mg/dL, a TP [1] of 5.9 g/dL and a gamma-GTP [1] of 1.8 IU/L. For the same molecule, the TERMINAL_BW [2] was 218.6 g, the APTT [3] was 22.4 s and the Bas [3] was 0%. The Eos [3] was 1%, the Fbg [3] was 344.8 mg/dL and the Hb [3] was 12.4 g/dL. It also gave a Ht [3] of 37.6%, an MCH [3] of 19.7 pg and an MCHC [3] of 32.9%. It also gave an MCV [3] of 60 fL, a Mono [3] of 2.2% and a PT [3] of 15.7 s. The Plat [3] was 109.9 x10_4/uL, the RBC [3] was 627.2 x10_4/ul and the Ret [3] was 4.6%. For the same molecule, the WBC [3] was 80.4 x10_2/uL, the ALP [2] was 878 IU/L and the ALT [2] was 45 IU/L. It also gave a CRE [2] of 0.2 mg/dL, a DBIL [2] of 0.008 mg/dL and a GLC [2] of 170.6 mg/dL. It also gave an IP [2] of 7 mg/dL, a K [2] of 4.1 meq/L and an LDH [2] of 195.4 IU/L. It also gave a Na [2] of 144 meq/L, a PL [2] of 189.4 mg/dL and an RALB [2] of 3.1 g/dL. For the same molecule, the TBIL [2] was 0.014 mg/dL, the TC [2] was 117.8 mg/dL and the TG [2] was 54.8 mg/dL. For the same molecule, the TP [2] was 5.6 g/dL, the gamma-GTP [2] was 1.2 IU/L and the TERMINAL_BW [4] was 250.3 g. The TERMINAL_BW [5] was 290.7 g, the TERMINAL_BW [6] was 357.8 g and the APTT [7] was 20.7 s. The Bas [7] was 0%, the Eos [7] was 1% and the Fbg [7] was 349.8 mg/dL. For the same molecule, the Hb [7] was 12.3 g/dL, the Ht [7] was 37.8% and the MCH [7] was 20.2 pg. The MCHC [7] was 32.7%, the MCV [7] was 61.8 fL and the Mono [7] was 2.4%. The PT [7] was 16.3 s, the Plat [7] was 130.6 x10_4/uL and the RBC [7] was 611 x10_4/ul. The Ret [7] was 7.1%, the WBC [7] was 101.3 x10_2/uL and the APTT [8] was 23.3 s. The Bas [8] was 0%, the Eos [8] was 1% and the Fbg [8] was 348.6 mg/dL. For the same molecule, the Hb [8] was 13.6 g/dL, the Ht [8] was 39.4% and the MCH [8] was 20 pg. For the same molecule, the MCHC [8] was 34.5%, the MCV [8] was 58 fL and the Mono [8] was 2.4%. The PT [8] was 16.1 s, the RBC [8] was 679.6 x10_4/ul and the Ret [8] was 5.2%. The WBC [8] was 99.9 x10_2/uL, the APTT [9] was 24.5 s and the Bas [9] was 0%. The Eos [9] was 1.4%, the Fbg [9] was 385.6 mg/dL and the Hb [9] was 14.2 g/dL. For the same molecule, the Ht [9] was 40.9%, the MCH [9] was 19 pg and the MCHC [9] was 34.8%. The MCV [9] was 54.7 fL, the Mono [9] was 2% and the Neu [9] was 16%. For the same molecule, the PT [9] was 16.3 s, the Plat [9] was 100.5 x10_4/uL and the RBC [9] was 748.8 x10_4/ul. The Ret [9] was 4%, the WBC [9] was 118.2 x10_2/uL and the ALP [4] was 989.4 IU/L. For the same molecule, the ALT [4] was 46 IU/L, the BUN [4] was 18.2 mg/dL and the CRE [4] was 0.2 mg/dL. The DBIL [4] was 0 mg/dL, the GLC [4] was 173.2 mg/dL and the IP [4] was 6.6 mg/dL. The K [4] was 4.3 meq/L, the LDH [4] was 195 IU/L and the Na [4] was 143 meq/L. For the same molecule, the PL [4] was 171 mg/dL, the RALB [4] was 3.1 g/dL and the TBIL [4] was 0.006 mg/dL. For the same molecule, the TG [4] was 38.2 mg/dL, the TP [4] was 5.8 g/dL and the gamma-GTP [4] was 1.6 IU/L. For the same molecule, the ALP [5] was 989.6 IU/L, the ALT [5] was 38.8 IU/L and the BUN [5] was 22.2 mg/dL. For the same molecule, the CRE [5] was 0.2 mg/dL, the DBIL [5] was 0 mg/dL and the GLC [5] was 172.6 mg/dL. For the same molecule, the IP [5] was 6.4 mg/dL, the K [5] was 4.2 meq/L and the LDH [5] was 126.6 IU/L. It also gave a Na [5] of 142 meq/L, a PL [5] of 181 mg/dL and an RALB [5] of 3.2 g/dL. The TBIL [5] was 0.014 mg/dL, the TC [5] was 104 mg/dL and the TG [5] was 41.2 mg/dL. For the same molecule, the TP [5] was 6 g/dL, the gamma-GTP [5] was 3 IU/L and the ALP [6] was 809.6 IU/L. The ALT [6] was 37.2 IU/L, the BUN [6] was 21.2 mg/dL and the CRE [6] was 0.2 mg/dL. The DBIL [6] was 0 mg/dL, the GLC [6] was 165.8 mg/dL and the IP [6] was 6 mg/dL. The K [6] was 4 meq/L, the LDH [6] was 132 IU/L and the Na [6] was 142 meq/L. For the same molecule, the PL [6] was 188 mg/dL, the RALB [6] was 3.3 g/dL and the TBIL [6] was 0.026 mg/dL. The TC [6] was 118 mg/dL, the TG [6] was 38 mg/dL and the TP [6] was 6.4 g/dL. It also gave a gamma-GTP [6] of 2.4 IU/L, a TERMINAL_BW [10] of 211.3 g and an APTT [11] of 23.3 s. The Bas [11] was 0%, the Eos [11] was 0.6% and the Fbg [11] was 405.6 mg/dL. For the same molecule, the Hb [11] was 12.6 g/dL, the Ht [11] was 37.8% and the MCH [11] was 20.2 pg. For the same molecule, the MCHC [11] was 33.3%, the MCV [11] was 60.9 fL and the Mono [11] was 2.4%. It also gave a PT [11] of 15.5 s, a Plat [11] of 118.3 x10_4/uL and an RBC [11] of 623 x10_4/ul. It also gave a Ret [11] of 4.4%, a WBC [11] of 61.8 x10_2/uL and an ALP [10] of 963 IU/L. For the same molecule, the ALT [10] was 47.6 IU/L, the CRE [10] was 0.1 mg/dL and the DBIL [10] was 0.02 mg/dL. For the same molecule, the GLC [10] was 162 mg/dL, the IP [10] was 7.7 mg/dL and the K [10] was 3.7 meq/L. It also gave an LDH [10] of 341.6 IU/L, a Na [10] of 144 meq/L and a PL [10] of 212.8 mg/dL. The RALB [10] was 3 g/dL, the TBIL [10] was 0.018 mg/dL and the TC [10] was 147.4 mg/dL. The TG [10] was 29.4 mg/dL, the TP [10] was 5.8 g/dL and the gamma-GTP [10] was 1.4 IU/L. For the same molecule, the TERMINAL_BW [12] was 217.6 g, the TERMINAL_BW [13] was 270 g and the TERMINAL_BW [14] was 304.2 g. It also gave an APTT [15] of 25.8 s, a Bas [15] of 0% and an Eos [15] of 0.5%. The Fbg [15] was 408.2 mg/dL, the Hb [15] was 13.4 g/dL and the Ht [15] was 40%. It also gave a Lym [15] of 64.8%, an MCH [15] of 19.7 pg and an MCHC [15] of 33.5%. For the same molecule, the MCV [15] was 58.8 fL, the Mono [15] was 5% and the Neu [15] was 28.8%. The PT [15] was 18.8 s, the Plat [15] was 130.8 x10_4/uL and the RBC [15] was 681.5 x10_4/ul. The Ret [15] was 4.8%, the WBC [15] was 88.4 x10_2/uL and the APTT [16] was 22.8 s. For the same molecule, the Bas [16] was 0%, the Eos [16] was 1% and the Fbg [16] was 377.4 mg/dL. It also gave a Hb [16] of 13.4 g/dL, a Ht [16] of 38.3% and an MCH [16] of 19.6 pg. The MCHC [16] was 35%, the MCV [16] was 55.9 fL and the Mono [16] was 2.4%. It also gave a Neu [16] of 22.6%, a PT [16] of 16.8 s and an RBC [16] of 683.8 x10_4/ul. The Ret [16] was 5.7%, the WBC [16] was 85.1 x10_2/uL and the APTT [17] was 20.8 s. It also gave a Bas [17] of 0%, an Eos [17] of 1% and a Fbg [17] of 382.2 mg/dL. It also gave a Hb [17] of 13.4 g/dL, a Ht [17] of 38.9% and an MCH [17] of 18.9 pg. The MCHC [17] was 34.5%, the MCV [17] was 54.9 fL and the Mono [17] was 2.6%. It also gave a Neu [17] of 17.8%, a PT [17] of 17.4 s and a Plat [17] of 99.3 x10_4/uL. The RBC [17] was 708.2 x10_4/ul, the Ret [17] was 4.8% and the WBC [17] was 98.6 x10_2/uL. It also gave an ALP [12] of 563.5 IU/L, an ALT [12] of 41.8 IU/L and a BUN [12] of 17.5 mg/dL. The CRE [12] was 0.2 mg/dL, the DBIL [12] was 0.0275 mg/dL and the GLC [12] was 147.5 mg/dL. The IP [12] was 7.2 mg/dL, the K [12] was 4.3 meq/L and the LDH [12] was 354.2 IU/L. The Na [12] was 145.2 meq/L, the PL [12] was 201 mg/dL and the RALB [12] was 2.9 g/dL. The TBIL [12] was 0.025 mg/dL, the TG [12] was 16.5 mg/dL and the TP [12] was 5.8 g/dL. It also gave a gamma-GTP [12] of 2.5 IU/L, an ALP [13] of 1017.2 IU/L and an ALT [13] of 34 IU/L. It also gave a BUN [13] of 21 mg/dL, a CRE [13] of 0.2 mg/dL and a DBIL [13] of 0.004 mg/dL. For the same molecule, the GLC [13] was 161.2 mg/dL, the IP [13] was 6.9 mg/dL and the K [13] was 4.1 meq/L. For the same molecule, the LDH [13] was 173.8 IU/L, the Na [13] was 142.8 meq/L and the PL [13] was 178.8 mg/dL. The RALB [13] was 3.3 g/dL, the TBIL [13] was 0.024 mg/dL and the TC [13] was 109.4 mg/dL. The TG [13] was 29.2 mg/dL, the TP [13] was 6.2 g/dL and the gamma-GTP [13] was 2.8 IU/L. For the same molecule, the ALP [14] was 651.8 IU/L, the ALT [14] was 34.2 IU/L and the BUN [14] was 19.6 mg/dL. For the same molecule, the CRE [14] was 0.2 mg/dL, the DBIL [14] was 0.014 mg/dL and the GLC [14] was 156.8 mg/dL. For the same molecule, the IP [14] was 6.1 mg/dL, the K [14] was 3.8 meq/L and the LDH [14] was 159.2 IU/L. For the same molecule, the Na [14] was 143 meq/L, the PL [14] was 166.6 mg/dL and the RALB [14] was 3.2 g/dL. For the same molecule, the TBIL [14] was 0.044 mg/dL, the TC [14] was 112.4 mg/dL and the TG [14] was 16.2 mg/dL. For the same molecule, the TP [14] was 6.4 g/dL and the gamma-GTP [14] was 2.8 IU/L.
